In patent publication US20180140602A1, “COMBINATION OF CHIMERIC ANTIGEN RECEPTOR THERAPY AND AMINO PYRIMIDINE DERIVATIVES” (Novartis AG, priority 2015, published 2018):
Entries after “also recorded” stand apart in the source; their conditions may differ.

Key:
CART19 cells [1] = test: level of circulating CART19 cells under ibrutinib treatment (Example 42); assay type: in vivo; conditions: data shown in Example 42
RL cells [2] = test: MTT assay, sensitivity to ibrutinib; assay type: cell-based; conditions: Homo sapiens, read-out: IC50, inhibition of proliferation
Jeko-1 cells [3] = test: MTT assay, sensitivity to ibrutinib; assay type: cell-based; conditions: Homo sapiens; Jeko-1, MTT assay; read-out: IC50, inhibition of proliferation
Mino cells = test: MTT assay, sensitivity to ibrutinib; assay type: cell-based; conditions: Homo sapiens, read-out: IC50, inhibition of proliferation
RL cells [4] = test: Sensitivity to ibrutinib by reduction of bioluminescence; assay type: cell-based, human; conditions: 0.1 nM to 10 μM
Jeko-1 cells [5] = test: as above; assay type: cell-based, human; conditions: 0.1 nM to 10 μM
MCL-RL cells = test: MCL-RL systemic xenograft model in NSG mice; assay type: in vivo
ITK = target: T1, ITK (Homo sapiens, UniProt Q08881); test: ITK phosphorylation (pITK-Y180) in stimulated CART19 cells; assay type: cell-based
T1 sequence (Q08881 1-620): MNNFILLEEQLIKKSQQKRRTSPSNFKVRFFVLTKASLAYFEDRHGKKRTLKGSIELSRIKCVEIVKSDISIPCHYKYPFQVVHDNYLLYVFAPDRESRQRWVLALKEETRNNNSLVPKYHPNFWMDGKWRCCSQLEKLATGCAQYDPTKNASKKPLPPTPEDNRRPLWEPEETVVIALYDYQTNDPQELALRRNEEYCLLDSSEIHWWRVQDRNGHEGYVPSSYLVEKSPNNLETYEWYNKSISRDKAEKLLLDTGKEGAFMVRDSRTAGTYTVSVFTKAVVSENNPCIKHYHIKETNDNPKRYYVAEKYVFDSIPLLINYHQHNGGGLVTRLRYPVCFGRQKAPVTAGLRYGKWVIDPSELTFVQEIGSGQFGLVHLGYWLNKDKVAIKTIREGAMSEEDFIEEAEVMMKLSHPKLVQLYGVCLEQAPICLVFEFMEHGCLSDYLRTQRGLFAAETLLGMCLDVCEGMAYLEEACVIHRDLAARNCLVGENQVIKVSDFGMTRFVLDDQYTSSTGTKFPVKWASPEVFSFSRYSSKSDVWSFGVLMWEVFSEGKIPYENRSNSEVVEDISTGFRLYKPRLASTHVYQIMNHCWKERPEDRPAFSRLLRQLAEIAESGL
From the text: See Dubovsky et al. Blood 122.15(2013):2539-49.

MCL = MCL treated with ibrutinib monotherapy; cited from earlier work
CART19 cells [6] = conditions: supra-physiologic concentrations
mantle cell lymphoma = conditions: MCL patients; cited from earlier work
[7] = patients; cited from earlier work

For `C=CC(=O)N1CCC[C@@H](n2nc(-c3ccc(Oc4ccccc4)cc3)c3c(N)ncnc32)C1` [ibrutinib, 1-[(3R)-3-[4-Amino-3-(4-phenoxyphenyl)-1H-pyrazolo[3,4-d]pyrimidin-1-yl]piperidin-1-yl]prop-2-en-1-one], the “level of circulating CART19 cells” value (CART19 cells [1]) was “increases the level of circulating CART19 cells”, the IC50 (RL cells [2]) was 0.01 µM and the IC50 (Jeko-1 cells [3]) was at most 10 µM. For the same compound, the IC50 (Mino cells) was at most 10 µM, the “sensitivity to ibrutinib (reduction of bioluminescence)” value (RL cells [4]) was “sensitive to ibrutinib treatment in a dose-dependent manner” and the “sensitivity to ibrutinib (reduction of bioluminescence)” value (Jeko-1 cells [5]) was “resistant to ibrutinib treatment”. The median overall survival (MCL-RL cells; 25 mg/kg/day) was 81 days, the median overall survival (MCL-RL cells; 125 mg/kg/day) was 100 days and the “effect on tumor burden / tumor growth (bioluminescence)” value (MCL-RL cells; MCL-RL engrafted NSG mice) was “dose-related sensitivity; also recorded: modestly delayed tumor growth at early time points”. The “phosphorylated ITK (pITK-Y180)” value (ITK; non-specific stimulation via the TCR) was “reduction in phosphorylated ITK”, the ITK activation (ITK; specific stimulation via the CAR) was “did not lead to diminished ITK activation” and the “median duration of response” value (MCL) was “about 17.5 months”. For the same compound, the “effect on CART19 cell functions” value (CART19 cells [6]) was “inhibition of CART19 cell functions”, the “duration of median response” value (mantle cell lymphoma) was 17.5 months and the “patients who do not respond” value (mantle cell lymphoma) was “about 30%”. For the same compound, the “mean peak concentration in serum” value [7] was 100 to 150 ng/mL.
